Assay results from US9801844B2, “Methods and compositions for the treatment of cancer” (priority 2012, dated 2017).
Where “and” joins values, the source holds several entries; their conditions need not be identical. Identical values can stand only once. Like-named read-outs stand apart in the source and are kept apart here. Blank lines part the entries; values can stand above or below the compound they belong to.

Experiments:
[1] = test system: SKOV3 (Her2 overexpressing) human ovarian cancer cells; assay: MTT cell proliferation assay on SKOV3 cells; assay type: cell-based; details: SKOV3, 96 h
Procedure: SKOV3 (Her2 overexpressing) ovarian cancer cells (ATCC, Manassas, Va.), were grown in McCoy's media (Gibco BRL Life Technologies, Inc., Rockville, Md.) containing 10% (v/v) fetal bovine serum (FBS) (Gibco BRL) at 37° C., 5% C02, plus Penn-Strep (Sigma).
The MTT [3-(4,5-dimethyl-2-thiazol)-2,5-diphenyl-2H tetrazolilum bromide] (Dojindo; Tokyo, Japan) cell proliferation assay system (Roche Diagnostic, Mannheim, Germany) was used to determine the sensitivity of the cell lines to agents. Cells were seeded at 1×10^4 cells/well in 96-well plates and allowed to attach for 24 h. The medium was replaced with fresh medium containing DMSO or compound. The cells were treated for 96 h, after which the media was replaced with fresh media; the cells were incubated with MTT reagents and the absorbance read at 650 and 575 nm. The 650 reading was subtracted from the 575 reading to correct for background absorbance.

[2] = test system: MDA-MB-453 Her2 overexpressing human breast cancer cells; assay: MTT cell proliferation assay on MDA-MB-453 cells; assay type: cell-based; details: MDA-MB-453 cells, MTT assay; for IC50: read-out: IC50, concentration that caused 50% inhibition of cell proliferation
Procedure: Cells were exposed to increasing concentrations of agents for 96 h and the number of viable cells determined by the MTT assay.

[3] = test system: MDA-MB-468 triple negative breast cancer cells; assay: MTT cell proliferation assay on MDA-MB-468 cells; assay type: cell-based, human; details: Homo sapiens, MDA-MB-468, MDA-MB-468 cells, MTT assay; read-out: IC50 growth inhibition
Procedure: MDA-MB-453 (ER negative, Her2 overexpressing), MDA-MB-468 (triple negative) and MCF7 (ER positive, Her2 low) cells, HT29 (p53 positive human colon cancer cells) (ATCC, Manassas, Va.) were grown in Dulbecco's Modified Eagle's medium (DMEM) (Gibco BRL Life Technologies, Inc., Rockville, Md.) containing 10% (v/v) fetal bovine serum (FBS) (Gibco BRL) at 37° C., 5% C02. SUM 149 (Her2 overexpressing, ER low) (the gift of Dr. R. Parsons, Columbia University Medical Center, New York, N.Y.) were cultivated in Ham's F-12 medium with 10% FBS. MCF7 and MCF7/Her2-18 (MCF7 cells transfected with a full length Her2 cDNA coding region, 45-fold increase Her2) were the kind gift of Dr. Dennis Slamon (Los Angeles, Calif.). These cells were maintained in RPMI supplemented with 10% FBS plus glutamine (1%) and PSF (1%) (Gibco, Rockville Md.).
MTT assay: the MTT {3-(4,5-dimethyl-2-thiazol)-2,5-diphenyl-2H tetrazolilum bromide} (Dojindo; Tokyo, Japan) cell proliferation assay system (Roche Diagnostic, Mannheim, Germany) was used to determine the sensitivity of the various cell lines to agents. Cells were seeded at 1×10^4 cells/well in 96-well plates and allowed to attach for 24 h. The medium was replaced with fresh medium containing DMSO or compound. The cells were treated for 96 or 120 h, after which they were incubated with MTT reagents and the absorbance read at 650 and 575 nm. For cell growth assays, the data are expressed as mean+/−standard deviation. Control and treated cells were compared using the student's t-test (p<0.05).
To determine the Combination Index (CI), cells were treated with all combinations of 4 or 5 concentrations of each of the agents tested and a solvent control. The results of the MTT assay were analyzed for possible synergistic effects using the median effect principle. Variable ratios of drugs were employees and mutually exclusive equations were assumed.

Na+-K+-ATPase = assay: Enzymatic assay of ATPase activity; assay type: biochemical; details: purified enzyme, in vitro; read-out: 50% inhibition, IC50 value, of Na+-K+-ATPase activity
Procedure: The enzymatic assay of ATPase (adenosine 5′-triphosphatase, EC 3.6.1.3) followed the Sigma Prod. No. A-7510 protocol (Sigma-Aldrich, St. Louis, Mo., USA). Agents (0.05 ml) were pipetted with ATPase (0.05 ml, 0.5 units/ml, Sigma-Aldrich, St. Louis, Mo., USA), mixed and equilibrated for 5 min at 37° C. Taussky-Shorr reagent (10 ml of 10% ammonium molybdate in 10 N H2SO4) was pipetted to 70 ml H2O, 5 g of ferrous sulfate heptahydrate was added, and the volume was brought to 100 ml with H2O. Test supernatant (0.5 ml) and H2O (0.5 ml) were mixed and incubated at 25° C., and the absorbance read at A660 nm.
To determine whether the Na+-K+-ATPase is involved in the mechanism of action of CA and curcumin, the ability of these agents to inhibit the in vitro activity of the purified enzyme was assayed.

Compound: CC(=O)O[C@@H]1C[C@@]23C[C@@]24CC[C@H](O[C@@H]2OC[C@@H](O)[C@H](O)[C@H]2O)C(C)(C)[C@@H]4CC[C@H]3[C@]2(C)C[C@@H]3O[C@]4(C[C@@H](C)[C@@H]3[C@@]12C)O[C@H](O)[C@@]1(C)O[C@@H]41 [ACT, actein, reference compound]
% cell proliferation ([1]; 5 μg/ml): 114.4% | % cell proliferation ([1]; 10 μg/ml): 116.1% | % cell proliferation ([1]; 15 μg/ml): 108.0% | % cell proliferation ([1]; 20 μg/ml): 98.1%

Compound: O=C(O[C@@H]1Cc2c(O)cc(O)cc2O[C@@H]1c1cc(O)c(O)c(O)c1)c1cc(O)c(O)c(O)c1 [EGCG, reference compound]
IC50, concentration that caused 50% inhibition of cell proliferation [2]: ~100 µg/mL | IC50 [2]: 218 µM

Compound: Oc1ccc(C=Cc2cc(O)cc(O)c2)cc1 [resveratrol, reference compound]
IC50 ([2]; Homo sapiens): 4 µg/mL and 17.5 µM

The remaining lines, values ahead:

IC50 [3]: 2.3 µg/mL and 6.2 µM | IC50 ([2]; Homo sapiens): 2 µg/mL and 5.4 µM | IC50 (Na+-K+-ATPase): ~2 µM
Compound: COc1cc(/C=C/C(=O)CC(=O)/C=C/c2ccc(O)c(OC)c2)ccc1O [curcumin]

IC50 ([2]; Homo sapiens): ~56 µg/mL and ~150 µM
Compound: O=C(/C=C/c1ccc(O)c(O)c1)O[C@H](Cc1ccc(O)c(O)c1)C(=O)O [rosmarinic acid, reference compound]
